This passage reports viability and Activity results from ChEMBL document CHEMBL2346612, “Pregna-5,17(20)-dien-21-oyl amides affecting sterol and triglyceride biosynthesis in Hep G2 cells” (Bioorg Med Chem Lett, 2013).

Each structure is given as a SMILES string. The source made the active and inactive calls. No cut-off for these calls is given here.

The nature of series [1]: Cytotoxicity against human HepG2 cells assessed as cell viability after 48 hrs by MTT assay. The series is classed as cell-based. On the set-up: concentration or dose not given beside the values. The settings on record: read-out: Activity. Background: Tetrazolium dyes change colour on reduction, which living cells bring about.
Series [2] deals with HepG2. In words: Effect on sterol biosynthesis in human HepG2 cells at 30 uM. The format is functional, cell-based.
In series [3] the test system is HepG2. Briefly: Effect on triglyceride biosynthesis in human HepG2 cells at 30 uM. The format is functional, cell-based.
Series [4] relates to HepG2. In words: Reduction in cholesterol biosynthesis in human HepG2 cells incubated at 5 uM for 14 hrs followed by sodium [14C]-acetate addition measured after 4 hrs. The series is classed as functional, cell-based.
The subject of series [5] is HepG2. Briefly: Stimulation of triglyceride biosynthesis in human HepG2 cells incubated at 5 uM for 14 hrs followed by sodium [14C]-acetate addition measured after 4 hrs. The format is functional, cell-based.
Series [6] concerns HepG2. Briefly: Reduction in cholesterol biosynthesis in human HepG2 cells incubated at 2 uM for 14 hrs followed by sodium [14C]-acetate addition measured after 4 hrs. The format is functional, cell-based.
Series [7] relates to HepG2. In words: Cytotoxicity against human HepG2 cells assessed as cell viability up to 2 uM after 48 hrs by MTT assay. The format is cell-based. To be noted: hepg2, 48 h.
The test system of series [8] is HepG2. In words: Stimulation of triglyceride biosynthesis in human HepG2 cells incubated at 2 uM for 14 hrs followed by sodium [14C]-acetate addition measured after 4 hrs. The format is functional, cell-based.

For `CC(C)CCNC(=O)/C=C1/CC[C@H]2[C@@H]3CC=C4C[C@@H](O)CC[C@]4(C)[C@H]3CC[C@]12C`, the viability at 48 h in series [1] is greater than 70%. Moreover, the result in the series on HepG2 [2], in the series on HepG2 [3], with HepG2 [4] and with HepG2 [5] was inactive.

For `C[C@H](CCCC(C)(C)O)[C@H]1CC[C@H]2[C@@H]3CC=C4C[C@@H](O)CC[C@]4(C)[C@H]3CC[C@]12C`, the result in the series with HepG2 [6] and in the series with HepG2 [8] was Active. For the same compound, the Activity entry in the series with HepG2 [7] was “Non-toxic”. The viability at 48 h in series [1] was greater than 70%. Besides, the outcome in the series on HepG2 [2] and with HepG2 [3] was inactive.

On to `CN(C)C(=O)CNC(=O)/C=C1\CC[C@H]2[C@@H]3CC=C4C[C@@H](O)CC[C@]4(C)[C@H]3CC[C@]12C`, for which the viability at 48 h in series [1] was greater than 70%. The result with HepG2 [2] and with HepG2 [3] was inactive. Besides, the outcome with HepG2 [4] and in the series on HepG2 [5] was Active.

In the case of `CC(C)CCNC(=O)/C=C1\CC[C@H]2[C@@H]3CC=C4C[C@@H](O)CC[C@]4(C)[C@H]3CC[C@]12C`, in series [1], the viability at 48 h was greater than 70%. For the same compound, the result in the series on HepG2 [2] and with HepG2 [3] was inactive. Further, the outcome with HepG2 [4] and in the series on HepG2 [5] was Active.

For the compound `C[C@]12CC[C@H](O)CC1=CC[C@@H]1[C@@H]2CC[C@]2(C)/C(=C/C(=O)NCCO)CC[C@@H]12`, the viability at 48 h in series [1] is greater than 70%. For the same compound, the result in the series with HepG2 [2] and with HepG2 [3] was inactive. In addition, the result in the series with HepG2 [4] and with HepG2 [5] was Active.

For `COC(=O)CNC(=O)/C=C1\CC[C@H]2[C@@H]3CC=C4C[C@@H](O)CC[C@]4(C)[C@H]3CC[C@]12C`, the viability at 48 h in series [1] is greater than 70%. The result with HepG2 [2], in the series on HepG2 [3] and in the series with HepG2 [4] was inactive. Also, in the series on HepG2 [5], the result was Active.

For `C[C@]12CC[C@H](O)CC1=CC[C@@H]1[C@@H]2CC[C@]2(C)/C(=C/C(=O)NC(CO)(CO)CO)CC[C@@H]12`, in series [1], the viability at 48 h is greater than 70%. The result in the series with HepG2 [2] and with HepG2 [3] was inactive.

In the case of `CC(CO)(CO)NC(=O)/C=C1/CC[C@H]2[C@@H]3CC=C4C[C@@H](O)CC[C@]4(C)[C@H]3CC[C@]12C`, in series [1], the viability at 48 h is greater than 70%. Also, the result in the series with HepG2 [2], with HepG2 [3], in the series with HepG2 [4] and in the series with HepG2 [5] was inactive.

In the case of `CC(C)(CO)NC(=O)/C=C1/CC[C@H]2[C@@H]3CC=C4C[C@@H](O)CC[C@]4(C)[C@H]3CC[C@]12C`, the viability at 48 h in series [1] was greater than 70%. Also, the outcome in the series with HepG2 [2], in the series on HepG2 [3], with HepG2 [4] and in the series with HepG2 [5] was inactive.

Regarding `CC(C)(CO)NC(=O)/C=C1\CC[C@H]2[C@@H]3CC=C4C[C@@H](O)CC[C@]4(C)[C@H]3CC[C@]12C`, the viability at 48 h in series [1] was greater than 70%. For the same compound, the result with HepG2 [2] and in the series with HepG2 [3] was inactive.

On to `C[C@]12CC[C@H](O)CC1=CC[C@@H]1[C@@H]2CC[C@]2(C)/C(=C\C(=O)NC(CO)(CO)CO)CC[C@@H]12`, for which, in series [1], the viability at 48 h is greater than 70%. The result in the series with HepG2 [2], with HepG2 [3], in the series on HepG2 [4] and in the series with HepG2 [5] was inactive.

As to `C[C@]12CC[C@H](O)CC1=CC[C@@H]1[C@@H]2CC[C@]2(C)/C(=C\C(=O)NCCO)CC[C@@H]12`, the viability at 48 h in series [1] is greater than 70%. For the same compound, the outcome in the series on HepG2 [2], with HepG2 [3], in the series on HepG2 [4] and with HepG2 [5] was inactive.

As to `CC(CO)(CO)NC(=O)/C=C1\CC[C@H]2[C@@H]3CC=C4C[C@@H](O)CC[C@]4(C)[C@H]3CC[C@]12C`, the viability at 48 h in series [1] was greater than 70%. Further, the outcome with HepG2 [2] and in the series with HepG2 [3] was inactive.
